Laboratory results as given in patent US5441941A, “1,2-dihydroellipticines with activity against CNS specific cancer” (The United States of America as represented by the …, priority 1993, dated 1995).

Tests used:
NCI-H226 = test: cells; settings: Homo sapiens
SN12C = test: NCI in vitro screen, SRB percent growth, Renal Cancer
NCI-H460 = test: NCI in vitro screen, SRB percent growth, Non-Small Cell Lung Cancer; settings: for TGI: PG=0; for GI50: PG=+50; for CC50: read-out: LC-50, PG=-50
RXF-393 = test: NCI in vitro screen, SRB percent growth, Renal Cancer
SR = test: NCI in vitro screen, SRB percent growth, Leukemia
OVCAR-4 = test: NCI in vitro screen, SRB percent growth, Ovarian Cancer
NCI-H322M = test: NCI in vitro screen, SRB percent growth, Non-Small Cell Lung Cancer
NCI-H522 = test: as above
HOP-92 = test: cells; settings: Homo sapiens
A498 = test: NCI in vitro screen, SRB percent growth, Renal Cancer
HOP-18 = test: NCI in vitro screen, SRB percent growth, Non-Small Cell Lung Cancer
DMS 273 = test: NCI in vitro screen, SRB percent growth, Small Cell Lung Cancer
[1] = NCI-H226, read-out: Percent Growth
[2] = Log10 Concentration -4.0, 100 µM
[3] = Log10 Concentration -7.0, 0.1 µM
[4] = HOP-92, read-out: Percent Growth

In the case of `Cc1ccc2[nH]c3c(C)c4c(c(C)c3c2c1)CN(C)C=C4` [Formula XI], the GI50 (NCI-H226; NCI-H226) is reported as 0.329 µM, the CC50 (NCI-H226; NCI-H226, read-out: LC-50) is reported as 17.4 µM and the activity at 0.01 µM (NCI-H226; [1]) is reported as 99%. The activity at 0.1 µM (NCI-H226; [1]) was 83%, the activity at 1 µM (NCI-H226; [1]) was 19% and the activity at 10 µM (NCI-H226; [1]) was -43%. For the same compound, the activity at 100 µM (NCI-H226; [1]) was -71%, the IC (TGI) (NCI-H226; NCI-H226, read-out: TGI) was 2.02 µM and the “Percent Growth” value (SN12C; [2]) was -92%. The “Percent Growth” value (SN12C; Log10 Concentration -5.0) was -69%, the “Percent Growth” value (SN12C; Log10 Concentration -6.0, 1 µM) was -36% and the “Percent Growth” value (SN12C; [3]) was 66%. For the same compound, the “Percent Growth” value (SN12C; Log10 Concentration -8.0) was 92%, the TGI (SN12C; PG=0) was 0.442 µM and the GI50 (SN12C; PG=+50) was 0.143 µM. The CC50 (SN12C; read-out: LC-50, PG=-50) was 2.65 µM, the “Percent Growth” value (NCI-H460; [2]) was -85% and the “Percent Growth” value (NCI-H460; Log10 Concentration -5.0) was 8%. For the same compound, the “Percent Growth” value (NCI-H460; Log10 Concentration -6.0, 1 µM) was 78%, the “Percent Growth” value (NCI-H460; [3]) was 91% and the “Percent Growth” value (NCI-H460; Log10 Concentration -8.0) was 99%. The TGI (NCI-H460) was 12.1 µM, the GI50 (NCI-H460) was 2.51 µM and the CC50 (NCI-H460) was 42.1 µM. The “Percent Growth” value (RXF-393; [2]) was -92%, the “Percent Growth” value (RXF-393; Log10 Concentration -5.0) was 9% and the “Percent Growth” value (RXF-393; Log10 Concentration -6.0, 1 µM) was 51%. The “Percent Growth” value (RXF-393; [3]) was 96%, the “Percent Growth” value (RXF-393; Log10 Concentration -8.0) was 99% and the TGI (RXF-393; PG=0) was 12.3 µM. For the same compound, the GI50 (RXF-393; PG=+50) was 1.04 µM, the CC50 (RXF-393; read-out: LC-50, PG=-50) was 38.5 µM and the “Percent Growth” value (SR; [2]) was -42%. The “Percent Growth” value (SR; Log10 Concentration -5.0) was 6%, the “Percent Growth” value (SR; Log10 Concentration -6.0, 1 µM) was 47% and the “Percent Growth” value (SR; [3]) was 86%. The “Percent Growth” value (SR; Log10 Concentration -8.0) was 101%, the TGI (SR; PG=0) was 13.5 µM and the GI50 (SR; PG=+50) was 0.846 µM. For the same compound, the CC50 (SR; read-out: LC-50, PG=-50) was over 100 µM, the “Percent Growth” value (OVCAR-4; [2]) was -85% and the “Percent Growth” value (OVCAR-4; Log10 Concentration -5.0) was -6%. For the same compound, the “Percent Growth” value (OVCAR-4; Log10 Concentration -6.0, 1 µM) was 68%, the “Percent Growth” value (OVCAR-4; [3]) was 96% and the “Percent Growth” value (OVCAR-4; Log10 Concentration -8.0) was 113%. It also gave a TGI (OVCAR-4; PG=0) of 8.34 µM, a GI50 (OVCAR-4; PG=+50) of 1.74 µM and a CC50 (OVCAR-4; read-out: LC-50, PG=-50) of 36.3 µM. The “Percent Growth” value (NCI-H322M; [2]) was -100%, the “Percent Growth” value (NCI-H322M; Log10 Concentration -5.0) was 10% and the “Percent Growth” value (NCI-H322M; Log10 Concentration -6.0, 1 µM) was 99%. For the same compound, the “Percent Growth” value (NCI-H322M; [3]) was 139%, the “Percent Growth” value (NCI-H322M; Log10 Concentration -8.0) was 133% and the TGI (NCI-H322M; PG=0) was 12.3 µM. It also gave a GI50 (NCI-H322M; PG=+50) of 3.55 µM and a CC50 (NCI-H322M; read-out: LC-50, PG=-50) of 35.1 µM.
For `COc1ccc2[nH]c3c(C)c4c(c(C)c3c2c1)CN(C)C=C4` [Formula VII], the “Percent Growth” value (NCI-H522; [2]) was -46%, the “Percent Growth” value (NCI-H522; Log10 Concentration -5.0) was -30% and the “Percent Growth” value (NCI-H522; Log10 Concentration -6.0, 1 µM) was 40%. The “Percent Growth” value (NCI-H522; [3]) was 91%, the “Percent Growth” value (NCI-H522; Log10 Concentration -8.0) was 97% and the TGI (NCI-H522; PG=0) was 3.71 µM. It also gave a GI50 (NCI-H522; PG=+50) of 0.626 µM, a CC50 (NCI-H522; read-out: LC-50, PG=-50) of over 100 µM and a GI50 (HOP-92; HOP-92) of 5.97 µM. The CC50 (HOP-92; HOP-92, read-out: LC-50) was 86.8 µM, the activity at 0.01 µM (HOP-92; [4]) was 121% and the activity at 0.1 µM (HOP-92; [4]) was 100%. For the same compound, the activity at 1 µM (HOP-92; [4]) was 95%, the activity at 10 µM (HOP-92; [4]) was 37% and the activity at 100 µM (HOP-92; [4]) was -56%. The IC (TGI) (HOP-92; HOP-92, read-out: TGI) was 25.1 µM, the “Percent Growth” value (A498; [2]) was -3% and the “Percent Growth” value (A498; Log10 Concentration -5.0) was 54%. For the same compound, the “Percent Growth” value (A498; Log10 Concentration -6.0, 1 µM) was 93%, the “Percent Growth” value (A498; [3]) was 114% and the “Percent Growth” value (A498; Log10 Concentration -8.0) was 105%. It also gave a TGI (A498; PG=0) of 90.2 µM, a GI50 (A498; PG=+50) of 11.6 µM and a CC50 (A498; read-out: LC-50, PG=-50) of over 100 µM. The “Percent Growth” value (NCI-H460; [2]) was -71%, the “Percent Growth” value (NCI-H460; Log10 Concentration -6.0, 1 µM) was 67% and the “Percent Growth” value (NCI-H460; [3]) was 85%. The “Percent Growth” value (NCI-H460; Log10 Concentration -8.0) was 93%, the TGI (NCI-H460) was 9.4 µM and the GI50 (NCI-H460) was 1.78 µM. The CC50 (NCI-H460) was 49.5 µM, the “Percent Growth” value (HOP-18; [2]) was -6% and the “Percent Growth” value (HOP-18; Log10 Concentration -5.0) was 71%. For the same compound, the “Percent Growth” value (HOP-18; Log10 Concentration -6.0, 1 µM) was 121%, the “Percent Growth” value (HOP-18; [3]) was 142% and the “Percent Growth” value (HOP-18; Log10 Concentration -8.0) was 174%. For the same compound, the TGI (HOP-18; PG=0) was 82.8 µM, the GI50 (HOP-18; PG=+50) was 18.8 µM and the CC50 (HOP-18; read-out: LC-50, PG=-50) was over 100 µM. The TGI (DMS 273; PG=0) was 13.4 µM and the GI50 (DMS 273; PG=+50) was 0.827 µM.
